The values below are quoted from earlier work in article PMC10837402, “Unnatural amino acid substitutions to improve in vivo stability and tumor uptake of ^68Ga-labeled GRPR-targeted TacBOMB2 derivatives for cancer imaging with positron emission tomography” (EJNMMI Radiopharmacy and Chemistry, 2024).

Data set [1] addresses T1, GRPR (Homo sapiens, UniProt P30550).
T1 construct: generated using GRPR-expressing PC-3 cells; endogenous in cells; host or cells: PC-3 cells
The note with it: vs Ac-Bombesin(7–14); ref Horwell et al. 1996; cited from earlier work.

The target in data set [2] is T1, GRPR. Further details: method as in Wang et al. [2023]. The note with it: previously reported; ref Wang et al. [2023]; read-out: GRPR binding affinity (Ki); cited from earlier work.
Data set [3] relates to GRPR-expressing PC-3 tumor xenografts. The following applies: mouse, in vivo, 1 h; cited from earlier work.

Where only a bound is given, the exact number is not on record here.

T1 sequence (P30550 whole entry): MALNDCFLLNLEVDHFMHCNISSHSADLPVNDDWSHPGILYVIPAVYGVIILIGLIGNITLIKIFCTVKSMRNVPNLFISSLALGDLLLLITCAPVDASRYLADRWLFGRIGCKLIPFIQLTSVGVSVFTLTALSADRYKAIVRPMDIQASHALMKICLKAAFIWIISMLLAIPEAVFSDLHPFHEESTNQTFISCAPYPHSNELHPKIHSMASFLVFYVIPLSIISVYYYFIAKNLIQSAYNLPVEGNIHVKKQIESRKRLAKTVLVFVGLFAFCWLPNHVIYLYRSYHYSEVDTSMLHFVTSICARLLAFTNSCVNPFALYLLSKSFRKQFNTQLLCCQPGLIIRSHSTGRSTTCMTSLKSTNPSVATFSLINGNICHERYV

For Ac-[NMe-Gly^11]Bombesin(7–14), the “Reduction in GRPR binding affinity caused by NMe-Gly^11 substitution” value on GRPR [1] was greater than 30 fold.
“^68Ga-DOTA-Pip-D-Phe^6-Gln^7-Trp^8-Ala^9-Val^10-Gly^11-His^12-Leu^13-Thz^14-NH2 [[^68Ga]Ga-TacBOMB2]”: the Ki (commonly the equilibrium dissociation constant of an inhibitor or competing ligand from its target) on GRPR [2] is 7.62 nM. In data set [3], the “Uptake in PC-3 tumor” value is 5.95 %ID/g, the “Uptake in adrenal glands” value is on record as 0.52 ± 0.11 %ID/g, the Uptake in blood was 0.39 ± 0.12 %ID/g and the Uptake in bone is listed as 0.26 ± 0.11 %ID/g. For the same substance, in data set [3], the Uptake in brain is 0.03 ± 0.01 %ID/g, the Uptake in fat is listed as 0.10 ± 0.03 %ID/g, the Uptake in heart is given as 0.14 ± 0.02 %ID/g and the Uptake in kidneys is reported as 2.43 ± 0.16 %ID/g. Also, in data set [3], the Uptake in liver is reported as 0.29 ± 0.13 %ID/g, the Uptake in lungs is on record as 0.39 ± 0.10 %ID/g, the Uptake in muscle was 0.13 ± 0.08 %ID/g and the Uptake in pancreas is recorded as 1.30 ± 0.14 %ID/g. Also, in data set [3], the “Uptake in small intestine” value is on record as 0.60 ± 0.12 %ID/g, the Uptake in spleen is reported as 0.27 ± 0.10 %ID/g, the Uptake in stomach is given as 0.54 ± 0.27 %ID/g and the Uptake in testes is 0.16 ± 0.05 %ID/g.
